Experimental findings from US7524847B2, “Fused 1,3-dihydro-imidazole ring compounds” (Eisai R&D Management Co., Ltd., priority 2002, dated 2009) are described below.

This assay concerns the target T1, DPP-IV obtained from pig kidney (Sus scrofa, UniProt P22411).
T1 construct: DPP-IV obtained from pig kidney; from tissue; host or cells: pig kidney
Kind of assay: Measurement of DPPIV-inhibiting activity (in vitro experiment). It is filed as biochemical. The following applies: DPP-IV from pig kidney 10 mU/mL, substrate Gly-Pro-p-nitroanilide 0.33 mM, 20 min preincubation, 20 min reaction, absorbance 405 nm. As to the method: DPP-IV obtained from pig kidney was dissolved in a reaction buffer (50 mM Tris-HCl pH7.4, 0.1% BSA) at 10 mU/mL, and 110 μL of this was used. 15 μL of the drug obtained from the aforementioned Examples was added, and this was incubated at room temperature for 20 minutes, and then 25 μL of a 2 mM solution of Gly-Pro-p-nitroanilide (final concentration 0.33 mM) was added to start the enzymatic reaction. The reaction time was 20 minutes, and 1 N phosphoric acid solution (25 μL) was added to stop the reaction.

pIC50: −log10 of the molar value. Where a name gives a salt, the structure may show the parent alone.

T1 sequence (P22411 whole entry): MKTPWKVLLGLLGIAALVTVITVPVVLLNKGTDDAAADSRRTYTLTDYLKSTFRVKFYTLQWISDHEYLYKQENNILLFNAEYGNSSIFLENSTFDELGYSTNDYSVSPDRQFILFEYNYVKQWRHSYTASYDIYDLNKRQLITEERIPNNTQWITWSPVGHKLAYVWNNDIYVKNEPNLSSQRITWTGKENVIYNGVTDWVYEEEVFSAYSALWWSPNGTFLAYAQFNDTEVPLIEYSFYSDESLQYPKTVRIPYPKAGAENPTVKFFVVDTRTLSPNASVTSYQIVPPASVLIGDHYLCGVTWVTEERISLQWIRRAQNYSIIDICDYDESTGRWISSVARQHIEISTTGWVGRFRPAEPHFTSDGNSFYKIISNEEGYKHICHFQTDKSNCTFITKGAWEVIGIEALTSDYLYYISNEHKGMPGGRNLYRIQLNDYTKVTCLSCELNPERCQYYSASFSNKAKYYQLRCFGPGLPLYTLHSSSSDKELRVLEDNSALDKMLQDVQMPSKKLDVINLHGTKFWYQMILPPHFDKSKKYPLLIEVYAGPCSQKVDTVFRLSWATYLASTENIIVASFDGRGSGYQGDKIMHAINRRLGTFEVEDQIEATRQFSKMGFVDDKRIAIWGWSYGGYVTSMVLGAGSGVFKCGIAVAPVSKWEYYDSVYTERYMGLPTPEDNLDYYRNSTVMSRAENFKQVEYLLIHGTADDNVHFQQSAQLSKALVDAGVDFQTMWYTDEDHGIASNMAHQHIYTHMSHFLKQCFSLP

In general, pIC50 refers to the IC50 on a negative log10 scale, so that one unit is a factor of ten. For `CC#CCn1c(=O)n(C)c2nc(Oc3ccccc3)nc(N3CCNCC3)c21` [Example 12, 7-(2-Butynyl)-9-methyl-2-phenoxy-6-(piperazin-1-yl)-7,9-dihydropurin-8-one trifluoroacetic acid salt], the pIC50 is 7.32.
The figure for `CC#CCn1c(=O)n(-c2ccc(OC)cc2)c2nc(Cl)nc(N3CCNCC3)c21` [Example 43, 7-(2-Butynyl)-2-chloro-9-(4-methoxyphenyl)-6-(piperazin-1-yl)-7,9-dihydropurin-8-one trifluoroacetic acid salt] is 7.17; for `CC#CCn1c(=O)n(Cc2ccccc2C(N)=O)c2nc(Cl)nc(N3CCNCC3)c21` [Example 39, 2-[7-(2-Butynyl)-2-chloro-8-oxo-6-(piperazin-1-yl)-7,8-dihydropurin-9-ylmethyl]benzamide trifluoroacetic acid salt] it is 7.49.
Turning to `CC#CCn1c(=O)n(-c2ccc(C#N)cc2)c2nc(Cl)nc(N3CCNCC3)c21` [Example 42, 4-[7-(2-Butynyl)-2-chloro-8-oxo-6-(piperazin-1-yl)-7,8-dihydropurin-9-yl]benzonitrile trifluoroacetic acid salt], the pIC50 is 7.37.
In turn, `CC#CCn1c(=O)[nH]c2nc(OC)nc(N3CCNCC3)c21` [Example 53, 7-(2-Butynyl)-2-methoxy-6-(piperazin-1-yl)-7,9-dihydropurin-8-one trifluoroacetic acid salt] gave a negative-log IC50 (pIC50) of 5.86.
Regarding `CC#CCn1c(=O)n(Cc2ccc(C#N)cc2)c2ncnc(N3CCNCC3)c21` [Example 73, 4-[7-(2-Butynyl)-8-oxo-6-(piperazin-1-yl)-7,8-dihydropurin-9-ylmethyl]benzonitrile trifluoroacetic acid salt], the pIC50 was 7.32.
With `CC#CCn1c(=O)n(-c2ccsc2)c2nc(OC)nc(N3CCNCC3)c21` [Example 57, 7-(2-Butynyl)-9-(thiophen-3-yl)-2-methoxy-6-(piperazin-1-yl)-7,9-dihydropurin-8-one trifluoroacetic acid salt] the figure was 7.11; with `CCC#CCn1c(=O)n(C)c2nc(Cl)nc(N3CCNCC3)c21` [Example 18, 2-Chloro-9-methyl-7-(2-pentynyl)-6-(piperazin-1-yl)-7,9-dihydropurin-8-one trifluoroacetic acid salt], 6.01; with `CC#CCn1c(=O)n(CCc2ccccc2)c2ncnc(N3CCNCC3)c21` [Example 74, 7-(2-Butynyl)-9-phenethyl-6-(piperazin-1-yl)-7,9-dihydropurin-8-one trifluoroacetic acid salt], 7.85.
As to `CC#CCn1c(=O)n(-c2ccoc2)c2nc(Cl)nc(N3CCNCC3)c21` [Example 44, 7-(2-Butynyl)-2-chloro-9-(furan-3-yl)-6-(piperazin-1-yl)-7,9-dihydropurin-8-one trifluoroacetic acid salt], the pIC50 was 6.88.
With `CC#CCn1c(=O)n(CC#N)c2nc(Cl)nc(N3CCNCC3)c21` [Example 32, [7-(2-Butynyl)-2-chloro-8-oxo-6-(piperazin-1-yl)-7,8-dihydropurin-9-yl]acetonitrile trifluoroacetic acid salt] the figure was 6.67; with `CC#CCn1c(=O)n(C)c2nc(N(C)C)nc(N3CCNCC3)c21` [Example 4, 7-(2-Butynyl)-2-dimethylamino-9-methyl-6-(piperazin-1-yl)-7,9-dihydropurin-8-one trifluoroacetic acid salt], 6.48.
The compound `CC#CCn1c(=O)n(-c2ccccc2)c2nc(Cl)nc(N3CCNCC3)c21` [Example 41, 7-(2-Butynyl)-2-chloro-9-phenyl-6-(piperazin-1-yl)-7,9-dihydropurin-8-one trifluoroacetic acid salt] gave a pIC50 of 7.04.
In turn, `CC#CCn1c(=O)n(C)c2nc(Cl)nc(N3CCCC(N)C3)c21` (centres unmarked) [Example 27, 6-(3-Amino-piperidin-1-yl)-7-(2-butynyl)-2-chloro-9-methyl-7,9-dihydropurin-8-one trifluoroacetic acid salt] gave a pIC50 of 5.50.
Consider `CC#CCn1c(=O)n(CC(N)=O)c2nc(Cl)nc(N3CCNCC3)c21` [Example 33, 2-[7-(2-Butynyl)-2-chloro-8-oxo-6-(piperazin-1-yl)-7,8-dihydropurin-9-yl]acetamide trifluoroacetic acid salt], for which the negative logarithm of the IC50 (pIC50) is 6.79.
For `CC#CCn1c(=O)n(C)c2nc(Oc3ccccc3C(N)=O)nc(N3CCNCC3)c21` [Example 14, 2-[7-(2-Butynyl)-9-methyl-8-oxo-6-(piperazin-1-yl)-8,9-dihydro-7H-purin-2-yloxy]benzamide trifluoroacetic acid salt], the pIC50 was 6.91.
With `CC#CCn1c(=O)n(C)c2ccnc(N3CCNCC3)c21` [Example 82, 3-(2-Butynyl)-1-methyl-4-piperazin-1-yl-1,3-dihydroimidazo[4.5-c]pyridin-2-one] the figure was 5.28.
The figure for `CC#CCn1c(=O)n(C)c2ncnc(N3CCNCC3)c21` [Example 76, 7-(2-Butynyl)-9-methyl-6-(piperazin-1-yl)-7,9-dihydropurin-8-one trifluoroacetic acid] is 5.97; for `C=CCn1c(=O)n(CC#CC)c2c(N3CCNCC3)nc(OCC)nc21` [Example 59, 9-Allyl-7-(2-butynyl)-2-ethoxy-6-(piperazin-1-yl)-7,9-dihydropurin-8-one trifluoroacetic acid salt] it is 6.92.
Take `CC#CCn1c(=O)n(Cc2ccc(C#N)cc2)c2nc(OC)nc(N3CCNCC3)c21` [Example 49, 4-[7-(2-Butynyl)-2-methoxy-8-oxo-6-(piperazin-1-yl)-7,8-dihydropurin-9-ylmethyl]benzonitrile trifluoroacetic acid salt]: the pIC50 is 7.40.
On to `Cn1c(=O)n(Cc2ccccc2)c2c(N3CCNCC3)nc(Cl)nc21` [Example 21, 7-Benzyl-2-chloro-9-methyl-6-(piperazin-1-yl)-7,9-dihydropurin-8-one trifluoroacetic acid salt], for which the negative-log IC50 (pIC50) is 5.61.
With `CC#CCn1c(=O)n(-c2ccccc2)c2ncnc(N3CCNCC3)c21` [Example 62, 7-(2-Butynyl)-9-phenyl-6-(piperazin-1-yl)-7,9-dihydropurin-8-one trifluoroacetic acid salt] the figure was 6.86; with `CC#CCn1c(=O)n(Cc2ccccc2C#N)c2nc(Cl)nc(N3CCNCC3)c21` [Example 29, 2-[7-(2-Butynyl)-2-chloro-8-oxo-6-(piperazin-1-yl)-7,8-dihydropurin-9-ylmethyl]benzonitrile trifluoroacetic acid salt], 8.53.
The figure for `CC#CCn1c(=O)n(C)c2nc(N(CC)CC)nc(N3CCNCC3)c21` [Example 3, 7-(2-Butynyl)-2-diethylamino-9-methyl-6-(piperazin-1-yl)-7,9-dihydropurin-8-one trifluoroacetic acid salt] is 6.49; for `C#CCn1c(=O)n(CC#CC)c2c(N3CCNCC3)ncnc21` [Example 70, 7-(2-Butynyl)-6-(piperazin-1-yl)-9-(2-propynyl)-7,9-dihydropurin-8-one trifluoroacetic acid salt] it is 7.02; for `CC=CCn1c(=O)n(C)c2nc(Cl)nc(N3CCNCC3)c21` [Example 20, 7-(2-Butenyl)-2-chloro-9-methyl-6-(piperazin-1-yl)-7,9-dihydropurin-8-one trifluoroacetic acid salt] it is 6.19.
In the case of `CC#CCn1c(=S)n(C)c2ncnc(N3CCNCC3)c21` [Example 84, 7-(2-Butynyl)-9-methyl-6-(piperazin-1-yl)-7,9-dihydropurin-8-thione trifluoroacetic acid salt], the negative-log IC50 (pIC50) was 4.87.
`CC#CCn1c(=O)n(C)c2nc(NC)nc(N3CCNCC3)c21` [Example 5, 7-(2-Butynyl)-9-methyl-2-methylamino-6-(piperazin-1-yl)-7,9-dihydropurin-8-one trifluoroacetic acid salt] showed a pIC50 of 6.76.
With `CC#CCn1c(=O)n(C)c2nc(SC)nc(N3CCNCC3)c21` [Example 9, 7-(2-Butynyl)-2-methylsulfanyl-9-methyl-6-(piperazin-1-yl)-7,9-dihydropurin-8-one trifluoroacetic acid salt] the figure was 6.67.
`CC#CCn1c(=O)n(Cc2ccccc2C#N)c2nc(OC)nc(N3CCNCC3)c21` [Example 50, 2-[7-(2-Butynyl)-2-methoxy-8-oxo-6-(piperazin-1-yl)-7,8-dihydropurin-9-ylmethyl]benzonitrile trifluoroacetic acid salt] gave a negative-log IC50 (pIC50) of 8.44.
The figure for `CC#CCn1c(=O)n(Cc2ccccc2)c2nc(Cl)nc(N3CCNCC3)c21` [Example 36, 9-Benzyl-7-(2-butynyl)-2-chloro-6-(piperazin-1-yl)-7,9-dihydropurin-8-one trifluoroacetic acid salt] is 7.09.
Regarding `CC#CCn1c(=O)n(C)c2nc(NCc3ccccc3)nc(N3CCNCC3)c21` [Example 17, 2-Benzylamino-7-(2-butynyl)-9-methyl-6-(piperazin-1-yl)-7,9-dihydropurin-8-one trifluoroacetic acid salt], the pIC50 is 6.58.
The figure for `CC(C)=CCn1c(=O)n(C)c2nc(Cl)nc(N3CCNCC3)c21` [Example 19, 2-Chloro-9-methyl-7-(3-methyl-2-butenyl)-6-(piperazin-1-yl)-7,9-dihydropurin-8-one trifluoroacetic acid salt] is 5.27; for `CC#CCn1c(=O)[nH]c2ncnc(N3CCNCC3)c21` [Example 75, 7-(2-Butynyl)-6-(piperazin-1-yl)-7,9-dihydropurin-8-one trifluoroacetic acid salt] it is 6.04; for `CC(C)=CCn1c(=O)n(C)c2ncnc(N3CCNCC3)c21` [Example 77, 9-Methyl-7-(3-methyl-2-butenyl)-6-(piperazin-1-yl)-7,9-dihydropurin-8-one trifluoroacetic acid salt] it is 5.09.
